Experimental data reported in patent US20230226040A1, “COMBINATION THERAPY COMPRISING AN FGFR INHIBITOR AND A KRAS INHIBITOR” (Incyte Corporation, priority 2021, published 2023).

Experiments:
Type in all cases: cell-based
H358 = assay: 5-day Cell Titer Glo combination matrix, Bliss score; conditions: H358 (Lung, Epithelial), 5 days
Method: (§2) Cells were seeded in RPMI medium with 10% HI FBS at a density of 500 cells/well in Greiner, white, clear bottom, 384-well tissue culture treated plates containing 10×10 combination matrices of compound. Plates were incubated at 37° C., 5% CO2 for 5 days. On day 5, Cell Titer Glo reagent was added to the plates and ATP luminescence was detected using a Pherastar FSX reader. The synergy score for the combination effect was calculated using a Bliss score model where the Bliss score=Yab-(Ya+Yb−(YaYb))×100, where Ya and Yb are the monotherapies. Bliss scores >20 are strongly synergistic and a higher Bliss scores indicates a higher level of synergism.
(§3) Cells were seeded in RPMI medium with 10% HI FBS at a density of 500 cells/well in Greiner, white, clear bottom, 384-well tissue culture treated plates containing 10×10 combination matrices of compound. Plates were incubated at 37° C., 5% CO2 for 5 days. On day 5, Cell Titer Glo reagent was added to the plates and ATP luminescence was detected using a Pherastar FSX reader. Synergy score for the combination effect is calculated using a Bliss score model where the Bliss score=Yab−(Ya+Yb−(YaYb))×100, where Ya and Yb are the monotherapies. Bliss scores >20 are strongly synergistic and a higher Bliss scores indicates a higher level of synergism.
(§4) Cells were seeded in RPMI medium with 10% HI FBS at a density of 500 cells/well in Greiner, white, clear bottom, 384-well tissue culture treated plates containing 10×10 combination matrices of compound. Plates were incubated at 37° C., 5% CO2 for 5 days. On day 5, Cell Titer Glo reagent was added to the plates and ATP luminescence was detected using a Pherastar FSX reader. The synergy score for the combination effect was calculated using a Bliss score model where the Bliss score=Yab−(Ya+Yb−(YaYb))×100, where Ya and Yb are the monotherapies. Bliss scores >20 are strongly synergistic and a higher Bliss scores indicates a higher level of synergism.

SW-1573 = assay: as above; conditions: SW-1573 (Lung, Mesenchymal), 5 days
Method: as §2, §3, §4

H1792 = assay: as above; conditions: H1792 (Lung, Mesenchymal), 5 days
Method: as §2, §3, §4

LU-99 = assay: as above; conditions: LU-99 (Lung, Mesenchymal); FGFR inhibitor in combination with Cmpd 3; 5 days
Method: as §3, §4

SW-837 = assay: as above; conditions: SW-837 (CRC, Epithelial); KRAS inhibitor in combination with pemigatinib; 5 days
Method: as §2, §4

Calu-1 = assay: as above; conditions: Calu-1 (Lung, Mesenchymal); KRAS inhibitor in combination with pemigatinib; 5 days
Method: as §2

HCC-44 = assay: as above; conditions: HCC-44 (Lung, Mesenchymal); KRAS inhibitor in combination with pemigatinib; 5 days
Method: as §2, §4

LU99 cells = assay: siRNA FGFR knockdown plus KRAS G12C inhibitor, Cell Titer Glo proliferation; conditions: in the absence of FGFR1 or FGFR4; 120 h
Method: Knockdown efficiency was assessed by Western blot and its effect was measured by cell proliferation inhibition.
(§1) The lyophilized siRNA pools or individuals (Dharmacon ON-TARGET plus siRNA from Horizon Discovery) were reconstituted by combining 1× siRNA buffer (200 μL) with lyophilized siRNA (20 nmol); or combining 1× siRNA buffer (100 μL) with lyophilized siRNA (10 nmol). Dharmafect Reagent 1 was prepared at a 1:200 dilution in 1X siRNA buffer. One tube of diluted reagent was prepared for each siRNA dilution. To each tube, the appropriate siRNA was added to Dharmafect Reagent 1 at a 1:400 dilution. The prepared siRNA reagent (25 per well) was added to the appropriate number of wells on a 96-well clear bottom Greiner plate and incubated at room temperature for 30 min.
For plating in 96-well pates, 2000 LU99 cells per well in 100 μL of medium were prepared. The prepared cells (100 μL per well) were added to each well of the 96-well plate and incubated at 48 h.
Compound plates were prepared with a compound starting concentration of 5 mM in a 3-fold dilution. Following 48 h transfection incubation, the appropriate compounds were added to the 96-well plate at a final starting concentration of 5 μM in 3-fold dilution (11 point dose response curve). After addition of the compounds, the 96-well plates were incubated at 37° C. for 120 h. After this time, Cell Titer Glo reagent is reconstituted and 100 μL of reagent was added per well. The plates were tapped gently and luminescence was read on a Pherastar microplate reader.

A427 cells = assay: siRNA FGFR knockdown plus KRAS G12D inhibitor, Cell Titer Glo proliferation; conditions: FGFR1 isoform knocked down; 120 h
Method: To further evaluate the KRAS/FGFR combination mechanism of action, siRNA FGFR knockdown experiments were conducted in A427 cells, followed by treatment with KRAS G12D inhibitors Compound 5, Compound 6, and Compound 7. Knockdown efficiency was assessed by Western blot (FIG. 13A) and its effect was measured by cell proliferation inhibition (FIGS. 13B-G). Initially, the effect of single FGFR isoforms knockdown in combination with KRAS G12D inhibitors Compound 5 (FIG. 13B), Compound 6 (FIG. 13D) and Compound 7 (FIG. 13F) was assessed. […] In addition, combining FGFR1 knockdown with knockdown of additional FGFR isoforms further increased the effect of KRAS G12D inhibitors (FIGS. 13C, E and G)
as §1, with “or combining lx siRNA buffer” for “or combining 1× siRNA buffer”, “dilution in 1× siRNA buffer.” for “dilution in 1X siRNA buffer.”, “reagent (25 μL per well)” for “reagent (25 per well)”
For plating in 96-well pates, 2000 A427 cells per well in 100 !IL of medium were prepared. The prepared cells (100 !IL per well) were added to each well of the 96-well plate and incubated at 48 h.
Compound plates were prepared with a compound starting concentration of 5 mM in a 3-fold dilution. Following 48 h transfection incubation, the appropriate compounds were added to the 96-well plate at a final starting concentration of 5μM in 3-fold dilution (11 point dose response curve). After addition of the compounds, the 96-well plates were incubated at 37° C. for 120 h. […] The plates were tapped gently and luminescence was read on a Pherastar microplate reader.

[1] = FGFR inhibitor in combination with Cmpd 3
[2] = KRAS inhibitor in combination with pemigatinib

| Compound | Avg. Bliss Score (H358; [1]) | Avg. Bliss Score (SW-1573; [1]) | Avg. Bliss Score (H1792; [1]) | Avg. Bliss Score (LU-99) | inhibition of A427 cell proliferation after siRNA knockdown (A427 cells) | further results |
| --- | --- | --- | --- | --- | --- | --- |
| CCN1CCN(c2ccc(Nc3cc(N(C)C(=O)Nc4c(Cl)c(OC)cc(OC)c4Cl)ncn3)cc2)CC1 [BGJ398] | −0.8 | 7.5 | 11.2 | 31.9 | – | – |
| CN(C)C1(C)CN(c2nc3c(F)c(-c4ccc(F)c5cccnc45)c(C(F)(F)F)cc3c3c2nnn3[C@H]2CCN(C(=O)/C=C/CF)[C@H](CC#N)C2)C1 [Compound 3, 2-((2S,4S)-4-(4-(3-(dimethylamino)-3-methylazetidin-1-yl)-6-fluoro-7-(5-fluoroquinolin-8-yl)-8-(trifluoromethyl)-1H-[1,2,3]triazolo[4,5-c]quinolin-1-yl)-1-((E)-4-fluorobutenoyl)piperidin-2-yl)acetonitrile] | – | – | – | – | – | Avg. Bliss Score (H358; [2]): 3.8; Avg. Bliss Score (SW-837): 0.9; Avg. Bliss Score (Calu-1): 8.7; Avg. Bliss Score (HCC-44): 5.8; Avg. Bliss Score (SW-1573; [2]): 18.6; Avg. Bliss Score (H1792; [2]): 28.5; inhibition of LU99 cell proliferation after siRNA knockdown (LU99 cells): higher inhibition in proliferation |
| C=CC(=O)N1CC[C@H](n2ncc3c(N4CC(N(C)C)C4)nc4c(F)c(-c5c(C)c(Cl)cc6[nH]ncc56)c(Cl)cc4c32)C[C@H]1CC#N [Compound 4, 2-((2S,4S)-1-acryloyl-4-(8-chloro-7-(6-chloro-5-methyl-1H-indazol-4-yl)-4-(3-(dimethylamino)azetidin-1-yl)-6-fluoro-1H-pyrazolo[4,3-c]quinolin-1-yl)piperidin-2-yl)acetonitrile] | – | – | – | – | – | Avg. Bliss Score (H358; [2]): −3; Avg. Bliss Score (SW-837): −11.7; Avg. Bliss Score (Calu-1): −9.9; Avg. Bliss Score (HCC-44): 4.7; Avg. Bliss Score (SW-1573; [2]): 17; Avg. Bliss Score (H1792; [2]): 30 |
| Cc1cc2c(-n3cncn3)nc3c(F)c(-c4cc(O)cc5ccc(F)cc45)c(CCC#N)cc3c2n1[C@H]1[C@H]2CN[C@@H]1C2 [Compound 5, 3-(1-((1R,4R,5S)-2-Azabicyclo[2.1.1]hexan-5-yl)-6-fluoro-7-(7-fluoro-3-hydroxynaphthalen-1-yl)-2-methyl-4-(1H-1,2,4-triazol-1-yl)-1H-pyrrolo[3,2-c]quinolin-8-yl)propanenitrile] | – | – | – | – | higher inhibition in proliferation compared to controls | – |
| CC(=O)N1CCC[C@@H]1c1cc2c(O[C@@H](C)[C@@H]3CCCN3C)nc3c(F)c(-c4cccc5c4C(C#N)CCC5)c(C)cc3c2n1[C@H]1[C@H]2CN[C@@H]1C2 (stereo partly shown) [Compound 6] | – | – | – | – | higher inhibition in proliferation compared to controls | – |
| CCOc1nc2c(F)c(-c3cc(O)cc4ccccc34)c(CCC#N)cc2c2c1cc(CN1CCN(CC)CC1=O)n2[C@H]1[C@H]2CN[C@@H]1C2 [Compound 7] | – | – | – | – | higher inhibition in proliferation compared to controls | – |
| COc1cc(OC)cc(N(CCNC(C)C)c2ccc3ncc(-c4cnn(C)c4)nc3c2)c1 [Erdafitinib] | 4.4 | 7.9 | 12.9 | 34.7 | – | – |
| C=CC(=O)N1CC[C@H](n2nc(C#Cc3cc(OC)cc(OC)c3)c3c(N)ncnc32)C1 [TAS-120] | 3.3 | 6.6 | 17.4 | 22 | – | – |
